Key:
[1] = target: T1, AlaRS R326W binding to GST-Nrp1 b1 (Homo sapiens, UniProt P49588, R326W); test: GST pull down assay; conditions: 20 µM Tanshinone I, ImageJ, average of three repeats
T1 construct: made in house; host or cells: E. coli BL21 (DE3), pET-21a for AlaRS
T1 sequence (P49588 1-968 R326W): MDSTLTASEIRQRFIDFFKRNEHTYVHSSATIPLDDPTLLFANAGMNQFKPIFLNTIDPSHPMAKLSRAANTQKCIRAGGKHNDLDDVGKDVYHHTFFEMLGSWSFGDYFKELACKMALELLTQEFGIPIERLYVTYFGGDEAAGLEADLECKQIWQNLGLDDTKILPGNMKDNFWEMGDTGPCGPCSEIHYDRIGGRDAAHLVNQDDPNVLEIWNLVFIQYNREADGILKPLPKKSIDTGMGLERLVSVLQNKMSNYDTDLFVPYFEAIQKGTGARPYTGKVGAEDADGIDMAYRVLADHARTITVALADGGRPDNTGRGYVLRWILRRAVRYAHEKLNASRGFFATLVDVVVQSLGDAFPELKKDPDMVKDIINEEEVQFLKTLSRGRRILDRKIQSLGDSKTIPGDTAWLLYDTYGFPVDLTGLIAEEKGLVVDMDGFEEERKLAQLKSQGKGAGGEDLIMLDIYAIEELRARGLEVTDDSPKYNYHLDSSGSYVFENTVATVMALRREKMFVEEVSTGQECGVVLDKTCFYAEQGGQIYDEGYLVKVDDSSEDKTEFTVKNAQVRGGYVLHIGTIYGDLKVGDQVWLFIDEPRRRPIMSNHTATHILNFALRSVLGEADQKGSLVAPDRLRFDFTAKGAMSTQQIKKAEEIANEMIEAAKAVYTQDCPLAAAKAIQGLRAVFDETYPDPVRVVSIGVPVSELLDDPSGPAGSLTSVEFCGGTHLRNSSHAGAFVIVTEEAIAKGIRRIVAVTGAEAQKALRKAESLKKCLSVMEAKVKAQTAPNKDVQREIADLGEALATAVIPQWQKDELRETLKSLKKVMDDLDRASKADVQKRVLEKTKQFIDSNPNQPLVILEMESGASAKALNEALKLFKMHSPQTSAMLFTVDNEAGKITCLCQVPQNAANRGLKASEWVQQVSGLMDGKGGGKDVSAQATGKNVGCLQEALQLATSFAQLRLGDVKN

293T cells = test: Cell viability (CCK-8 assay); assay type: cell-based; conditions: up to 40 μM, 24 h
Procedure: (§1) Further validation of the safety and efficacy of Tanshinone I involved conducting cytotoxicity assays to ensure minimal toxicity to normal cells, while effectively inhibiting the abnormal interaction between AlaRS CMT mutants and Nrp1. We used the CCK-8 assay to evaluate the effects of Tanshinone I on 293T and NSC34 cells. Cells were treated with different concentrations of Tanshinone I for 24 h, followed by incubation with CCK-8 reagent. […] The Cell Counting Kit-8 (CCK-8) assay was performed to assess cell viability following the manufacturer’s instructions. Briefly, cells were seeded at an initial density of 5 × 10^3 cells per well in a 96-well plate and incubated overnight. The following day, the cells were treated with various concentrations of Tanshinone I. After 24 h of treatment, 10 μL of CCK-8 reagent (GlpBio, Montclair, CA, USA) was added to each well, and the plate was incubated at 37 °C with 5% CO2 for 1.5 h. Absorbance was then measured at 450 nm using a multimode microplate reader. The experiment was repeated three times.

NSC34 cells = test: Cell viability (CCK-8 assay); assay type: cell-based; conditions: up to 40 μM, 24 h
Procedure: as §1

Cc1coc2c1C(=O)C(=O)c1c-2ccc2c(C)cccc12 [Tanshinone I]
Mean density band (R326W), relative quantification of AlaRS mutant pulled down [1]: 0.84 | Cell viability (293T cells): did not significantly affect the viability | Cell viability (NSC34 cells): did not significantly affect the viability
